Patent publication US4438142A, “Pharmaceutical combination” (Burroughs Wellcome Co., priority 1982, dated 1984)

Test system: rat
Experiment: Analgesic Activity: Rat Hot Plate Assay
Format: in vivo
Conditions: for ED50: po, 1 h, p.o. in rat, single substance, 60 min prior to testing, plate 45±1.0° C., ± standard error
Text: The rat hot plate assay incorporated two modifications of the mouse hot plate assay originally described by Eddy et al., J. Pharmacol. Exp. Ther. 98, 121-137 (1950). The first modification was enlargement of the diameter of the cylindrical (water filled) copper plate to 25.0 cm to accommodate rats instead of mice. The second modification was the use of a temperature controller to regulate a 250 watt infrared heat lamp which was activated via a thermistor probe attached to the under surface of the copper plate, the temperature of which was thus maintained at 45±1.0° C. (N=28 measurements of the plate temperature under experimental conditions). The time required for a rat placed on the hot plate to respond by lifting, shaking or licking either of its hind or forelimbs was recorded in tenths of a second. Only animals responding in pretest within 6-13 seconds were used in the studies. The combination, comprising an intimate mixture of codeine phosphate with compound I, was suspended in 0.5% sodium carboxymethylcellulose and administered orally, by gavage, in a volume of 1.00 ml/100 g.b. wt. 60 min prior to testing. […] The reaction time of 18.3 seconds represented the sum of the mean pretest times of 40 untreated rats plus the time of 3 standard deviations of the mean. ED50 's and their standard errors were estimated from a graph of the dose-response curves using the method of Miller and Tainter (Proc. Soc. Exp. Biol. Med. 57, 261-262 (1944). Following this procedure the analgesic activities of codeine, compound I and the combination (codeine+compound I) were compared (Table I).

COc1ccc2c3c1O[C@H]1[C@@H](O)C=C[C@H]4[C@@H](C2)N(C)CC[C@@]341 [Codeine Phosphate, reference compound]
ED50: 57 ± 35.3 mg/kg

O=C1CCCN1c1ccc2c(c1)OCO2 [Compound I, 1-(1,3-benzodioxol)-5-yl-2-pyrrolidinone]
ED50: 86 ± 16.5 mg/kg | potentiation of the analgesic activity of codeine (upon oral administration, compound I with codeine, species not stated): four to seven
